Measurements reported in patent US20260365634A1, “HERBICIDAL PYRAZOLE COMPOUNDS” (SYNGENTA CROP PROTECTION AG, priority 2022, published 2026).

Legend:
Format in all cases: in vivo
Conditions in all cases: 250 g/ha, evaluated after 13 days
[1] = test system: Amaranthus palmeri (AMAPA); test: Pre-emergence herbicidal glasshouse test
Method: (§1) Seeds of a variety of test species are sown in standard soil in pots Amaranthus palmeri (AMAPA), Amaranthus retoflexus (AMARE), Echinochloa crus-galli (ECHCG), Ipomoea hederacea (IPOHE), Setaria faberi (SETFA). After cultivation for one day (pre-emergence) or after 8 days cultivation (post-emergence) under controlled conditions in a glasshouse (at 24/16 °C, day/night; 14 hours light; 65% humidity), the plants are sprayed with an aqueous spray solution derived from the formulation of the technical active ingredient in acetone/water (50:50) solution containing 0.5% Tween 20 (polyoxyethelyene sorbitan monolaurate, CAS RN 9005-64-5). Compounds are applied at 250 g/ha unless otherwise stated. The test plants are then grown in a glasshouse under controlled conditions in a glasshouse (at 24/16 °C, day/night; 14 hours light; 65% humidity) and watered twice daily. After 13 days for pre and post-emergence, the test is evaluated for the percentage damage caused to the plant. The biological activities are shown in the following table on a five-point scale (5=81-100%; 4=61-80%; 3=41-60%; 2=21-40%; 1=0-20%).

Setaria faberi (SETFA) [2] = test: Pre-emergence herbicidal glasshouse test
Method: as §1

[3] = test system: Ipomoea hederacea (IPOHE); test: Pre-emergence herbicidal glasshouse test
Method: as §1

[4] = test system: Echinochloa crus-galli (ECHCG); test: Pre-emergence herbicidal glasshouse test
Method: as §1

[5] = test system: Amaranthus retoflexus (AMARE); test: Pre-emergence herbicidal glasshouse test
Method: as §1

[6] = test system: Amaranthus palmeri (AMAPA); test: Post-emergence herbicidal glasshouse test
Method: as §1

Setaria faberi (SETFA) [7] = test: Post-emergence herbicidal glasshouse test
Method: as §1

[8] = test system: Ipomoea hederacea (IPOHE); test: Post-emergence herbicidal glasshouse test
Method: as §1

[9] = test system: Echinochloa crus-galli (ECHCG); test: Post-emergence herbicidal glasshouse test
Method: as §1

[10] = test system: Amaranthus retoflexus (AMARE); test: Post-emergence herbicidal glasshouse test
Method: as §1

| Structure (SMILES) | percentage damage caused to the plant (five-point scale), AMAPA [1] | percentage damage caused to the plant (five-point scale), SETFA (Setaria faberi (SETFA) [2]) | percentage damage caused to the plant (five-point scale), IPOHE [3] | percentage damage caused to the plant (five-point scale), ECHCG [4] | percentage damage caused to the plant (five-point scale), AMARE [5] | percentage damage caused to the plant (five-point scale), AMAPA [6] | percentage damage caused to the plant (five-point scale), SETFA (Setaria faberi (SETFA) [7]) | percentage damage caused to the plant (five-point scale), IPOHE [8] | percentage damage caused to the plant (five-point scale), ECHCG [9] | percentage damage caused to the plant (five-point scale), AMARE [10] |
| --- | --- | --- | --- | --- | --- | --- | --- | --- | --- | --- |
| C=CCCn1nc(C(F)F)cc1Cc1ncc(Cl)cn1 [Compound 1.021] | 5 (81-100%) | 3 (41-60%) | 1 (0-20%) | 2 (21-40%) | 5 (81-100%) | 2 (21-40%) | 1 (0-20%) | 1 (0-20%) | 1 (0-20%) | 3 (41-60%) |
| N#CC1(Cn2nc(C(F)(F)F)cc2Cc2ncc(Cl)cn2)CC1 [Compound 1.022] | 4 (61-80%) | 4 (61-80%) | 5 (81-100%) | 3 (41-60%) | 5 (81-100%) | 4 (61-80%) | 1 (0-20%) | 4 (61-80%) | 1 (0-20%) | 4 (61-80%) |
| CS(=O)(=O)CCn1nc(C(F)F)cc1Cc1ncc(Cl)cn1 [Compound 1.023] | 1 (0-20%) | 1 (0-20%) | 2 (21-40%) | 1 (0-20%) | 1 (0-20%) | 2 (21-40%) | 1 (0-20%) | 3 (41-60%) | 1 (0-20%) | 2 (21-40%) |
| FC(F)c1cc(Cc2ncc(Cl)cn2)n(CCBr)n1 [Compound 1.025] | 4 (61-80%) | 1 (0-20%) | 1 (0-20%) | 2 (21-40%) | 4 (61-80%) | 1 (0-20%) | 1 (0-20%) | 1 (0-20%) | 1 (0-20%) | 1 (0-20%) |
| C=CCn1nc(C(F)F)cc1Cc1ncc(Cl)cn1 [Compound 1.026] | 1 (0-20%) | 1 (0-20%) | 1 (0-20%) | 1 (0-20%) | 1 (0-20%) | 1 (0-20%) | 1 (0-20%) | 1 (0-20%) | 1 (0-20%) | 1 (0-20%) |
| N#CC1(Cn2nc(C(F)F)cc2Cc2ccc(Cl)cc2)CC1 [Compound 1.027] | 1 (0-20%) | 2 (21-40%) | 2 (21-40%) | 1 (0-20%) | 1 (0-20%) | 1 (0-20%) | 1 (0-20%) | 1 (0-20%) | 1 (0-20%) | 1 (0-20%) |
| FC(F)(F)c1cc(Cc2ncc(Cl)cn2)n(C2CCCC2)n1 [Compound 1.028] | 5 (81-100%) | 5 (81-100%) | 1 (0-20%) | 2 (21-40%) | 5 (81-100%) | 2 (21-40%) | 2 (21-40%) | 3 (41-60%) | 2 (21-40%) | 4 (61-80%) |
| CC(C)(C#N)CCCn1nc(C(F)(F)F)cc1Cc1ncc(Cl)cn1 [Compound 1.029] | 4 (61-80%) | 3 (41-60%) | 5 (81-100%) | 3 (41-60%) | 5 (81-100%) | 3 (41-60%) | 2 (21-40%) | 3 (41-60%) | 3 (41-60%) | 4 (61-80%) |
| CCSCCn1nc(C(F)F)cc1Cc1ncc(Cl)cn1 [Compound 1.030] | 1 (0-20%) | 1 (0-20%) | 1 (0-20%) | 1 (0-20%) | 1 (0-20%) | 5 (81-100%) | 4 (61-80%) | 5 (81-100%) | 2 (21-40%) | 5 (81-100%) |
| FC(F)CCn1nc(C(F)(F)Cl)cc1Cc1ncc(Cl)cn1 [Compound 1.031] | 5 (81-100%) | 5 (81-100%) | 5 (81-100%) | 5 (81-100%) | 5 (81-100%) | 4 (61-80%) | 4 (61-80%) | 4 (61-80%) | 3 (41-60%) | 4 (61-80%) |
| FC(F)(Cl)c1cc(Cc2ncc(Cl)cn2)n(CCC2CC2)n1 [Compound 1.032] | 5 (81-100%) | 5 (81-100%) | 5 (81-100%) | 5 (81-100%) | 5 (81-100%) | 5 (81-100%) | 5 (81-100%) | 4 (61-80%) | 4 (61-80%) | 5 (81-100%) |
| C=Cn1nc(C(F)F)cc1Cc1ncc(Cl)cn1 [Compound 1.037] | 5 (81-100%) | 1 (0-20%) | 3 (41-60%) | 1 (0-20%) | 5 (81-100%) | 3 (41-60%) | 2 (21-40%) | 2 (21-40%) | 2 (21-40%) | 4 (61-80%) |
| FC(F)c1cc(Cc2ncc(Cl)cn2)n(CCn2ccc(C(F)(F)F)n2)n1 [Compound 1.038] | 2 (21-40%) | 2 (21-40%) | 1 (0-20%) | 2 (21-40%) | 1 (0-20%) | 1 (0-20%) | 1 (0-20%) | 1 (0-20%) | 1 (0-20%) | 1 (0-20%) |
